ChEMBL document CHEMBL6177953, “Discovery of a novel quinoxaline derivative modulator via a dual P53/TLR2 targeting strategy for the alleviation of radiation damage” (Eur J Med Chem, 2025)
pIC50: −log10 of the molar value. Active and inactive are the calls of the source. The rule behind the calls is not given here.

How the values were obtained:
Type in all cases: functional, cell-based
[1] = system: AHH-1; assay: Cytotoxicity against human AHH-1 cells incubated for 24 to 96 hrs by CCK-8 assay
[2] = system: AHH-1; assay: Antiradiation activity in human AHH-1 cells assessed as increase in cell viability at 2.5 to 10 micromol/L pre-treated with compound for 24 hrs followed by irradiation at 4 Gy measured after 24 hrs by CCK-8 assay; conditions: dose 2.5-10 µmol/L, time 48.0 hrs
[3] = system: AHH-1; assay: Antiradiation activity in human AHH-1 cells assessed as increase in cell viability at 2.5 to 10 micromol/L pre-treated with compound for 24 hrs followed by irradiation at 6 Gy measured after 24 hrs by CCK-8 assay; conditions: dose 2.5-10 µmol/L, time 48.0 hrs
[4] = system: AHH-1; assay: Antiradiation activity in human AHH-1 cells assessed as increase in cell viability at 2.5 to 10 micromol/L pre-treated with compound for 24 hrs followed by irradiation at 8 Gy measured after 24 hrs by CCK-8 assay; conditions: dose 2.5-10 µmol/L, time 48.0 hrs

O=S(=O)(Cc1ccc(Br)cc1)c1cnc2cc(Cl)ccc2n1
pIC50 [1]: 4.81 | Activity [2]: Active | Activity [3]: Active | Activity [4]: Active

Brc1ccc(CSc2cnc3cc(Br)ccc3n2)cc1
pIC50 [1]: 5.34

O=S(=O)(Cc1ccc(Br)cc1)c1cnc2cc(Br)ccc2n1
pIC50 [1]: 4.66

Cc1ccc(CSc2cnc3ccccc3n2)cc1
pIC50 [1]: < 4.22 | Activity [2]: Active | Activity [3]: Active | Activity [4]: Active

Brc1ccc(CSc2cnc3ccccc3n2)cc1
pIC50 [1]: 5.05 | Activity [2]: Active | Activity [3]: Active | Activity [4]: Active

O=S(=O)(Cc1ccc(Cl)cc1)c1cnc2ccccc2n1
pIC50 [1]: 5.25

[O-][S+](Cc1ccc(Cl)cc1)c1cnc2cc(Cl)ccc2n1 (stereo not drawn)
pIC50 [1]: 4.95

O=C(O)c1ccc(CSc2cnc3cc(Br)ccc3n2)cc1
pIC50 [1]: < 4.22 | Activity [2]: Active | Activity [3]: Active | Activity [4]: Active

Fc1ccc(CSc2cnc3ccccc3n2)cc1
pIC50 [1]: 4.23 | Activity [2]: Active | Activity [3]: Active | Activity [4]: Active

O=C(O)c1ccc(CS(=O)(=O)c2cnc3ccccc3n2)cc1
pIC50 [1]: < 4.22 | Activity [2]: Active | Activity [3]: Active | Activity [4]: Active

Clc1ccc(CSc2cnc3cc(Cl)ccc3n2)cc1
pIC50 [1]: 4.27 | Activity [2]: Active | Activity [3]: Active | Activity [4]: Active

Clc1ccc2nc(SCc3ccc(Br)cc3)cnc2c1
pIC50 [1]: < 4.22

N#Cc1ccc(CSc2cnc3ccccc3n2)cc1
pIC50 [1]: 4.76 | Activity [2]: Active | Activity [3]: Active | Activity [4]: Active

COc1ccc(CSc2cnc3ccccc3n2)cc1
pIC50 [1]: < 4.22 | Activity [2]: Active | Activity [3]: Active | Activity [4]: Active

N#Cc1ccc(C[S+]([O-])c2cnc3cc(Cl)ccc3n2)cc1 (stereo not drawn)
pIC50 [1]: 5.34

Cc1ccc(CSc2cnc3cc(Br)ccc3n2)cc1
pIC50 [1]: 4.95

[O-][S+](Cc1ccc(Br)cc1)c1cnc2ccccc2n1 (stereo not drawn)
pIC50 [1]: < 4.22

Clc1ccc(CSc2cnc3ccccc3n2)cc1
pIC50 [1]: 4.78 | Activity [2]: Active | Activity [3]: Active | Activity [4]: Active

O=S(=O)(Cc1ccccc1)c1cnc2cc(Cl)ccc2n1
pIC50 [1]: 5.20

O=S(=O)(Cc1ccc(F)cc1)c1cnc2ccccc2n1
pIC50 [1]: < 4.22

Clc1ccc(CSc2cnc3cc(Br)ccc3n2)cc1
pIC50 [1]: 5.52

COc1ccc(CSc2cnc3cc(Br)ccc3n2)cc1
pIC50 [1]: 4.40 | Activity [2]: Active | Activity [3]: Active | Activity [4]: Active

O=S(=O)(Cc1ccc(Cl)cc1)c1cnc2cc(Br)ccc2n1
pIC50 [1]: < 4.22

[O-][S+](Cc1ccccc1)c1cnc2cc(Cl)ccc2n1 (stereo not drawn)
pIC50 [1]: 5.20

O=S(=O)(Cc1ccc(F)cc1)c1cnc2cc(Br)ccc2n1
pIC50 [1]: < 4.22

[O-][S+](Cc1ccc(Br)cc1)c1cnc2cc(Cl)ccc2n1 (stereo not drawn)
pIC50 [1]: 4.89

O=C(O)c1ccc(CSc2cnc3cc(Cl)ccc3n2)cc1
pIC50 [1]: < 4.22 | Activity [2]: Active | Activity [3]: Active | Activity [4]: Active

Cc1ccc(CS(=O)(=O)c2cnc3cc(Br)ccc3n2)cc1
pIC50 [1]: < 4.22

[O-][S+](Cc1ccc(F)cc1)c1cnc2cc(Br)ccc2n1 (stereo not drawn)
pIC50 [1]: < 4.22

[O-][S+](Cc1ccc(F)cc1)c1cnc2ccccc2n1 (stereo not drawn)
pIC50 [1]: < 4.22 | Activity [2]: Active | Activity [3]: Active | Activity [4]: Active

O=S(=O)(Cc1ccc(Br)cc1)c1cnc2ccccc2n1
pIC50 [1]: < 4.22 | Activity [2]: Active | Activity [3]: Active | Activity [4]: Active

O=S(=O)(Cc1ccc(Cl)cc1)c1cnc2cc(Cl)ccc2n1
pIC50 [1]: 4.73

Cc1ccc(CS(=O)(=O)c2cnc3cc(Cl)ccc3n2)cc1
pIC50 [1]: 4.56

[O-][S+](Cc1ccc(F)cc1)c1cnc2cc(Cl)ccc2n1 (stereo not drawn)
pIC50 [1]: 5.28

Fc1ccc(CSc2cnc3cc(Cl)ccc3n2)cc1
pIC50 [1]: < 4.22

Cc1ccc(C[S+]([O-])c2cnc3cc(Cl)ccc3n2)cc1 (stereo not drawn)
pIC50 [1]: 4.89
